Measured values from ChEMBL document CHEMBL2401657, “Discovery of new PPARγ agonists based on arylopeptoids” (Bioorg Med Chem Lett, 2013).
Activity calls are given as the source filed them. The calls are words filed in the database; no cut-off is given here.

How the values were obtained:
[1] = target: Free fatty acid receptor 1 (Homo sapiens) (UniProt O14842); experiment: Agonist activity at FFAR1 (unknown origin) assessed as induction of calcium mobilization at 10 uM by fluorescence assay; assay type: functional
Chain of Free fatty acid receptor 1 (Homo sapiens) (O14842 whole entry): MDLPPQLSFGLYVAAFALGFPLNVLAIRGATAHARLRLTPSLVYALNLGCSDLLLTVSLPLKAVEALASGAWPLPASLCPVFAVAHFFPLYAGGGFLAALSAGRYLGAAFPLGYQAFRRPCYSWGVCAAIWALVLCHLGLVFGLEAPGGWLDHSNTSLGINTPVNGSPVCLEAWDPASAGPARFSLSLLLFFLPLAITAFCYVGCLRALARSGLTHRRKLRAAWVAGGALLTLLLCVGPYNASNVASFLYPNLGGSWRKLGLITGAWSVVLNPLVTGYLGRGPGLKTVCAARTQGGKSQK

[2] = target: Free fatty acid receptor 1 (Homo sapiens) (UniProt O14842); experiment: Antagonist activity at FFAR1 (unknown origin) assessed as inhibition of GW9508-induced calcium mobilization at 10 uM preincubated for 20 mins followed by GW9508 induction by fluorescence assay; assay type: functional
[3] = Cytotoxicity against mouse embryo fibroblasts; assay type: cell-based; conditions: fibroblast
[4] = target: T1, Peroxisome proliferator-activated receptor gamma (Homo sapiens) (UniProt P37231); experiment: Transactivation of human PPARgamma LBD transfected in mouse embryo fibroblasts at 100 uM after 18 hrs by Gal4-responsive luciferase reporter gene assay relative to rosiglitazone
T1 sequence (whole entry): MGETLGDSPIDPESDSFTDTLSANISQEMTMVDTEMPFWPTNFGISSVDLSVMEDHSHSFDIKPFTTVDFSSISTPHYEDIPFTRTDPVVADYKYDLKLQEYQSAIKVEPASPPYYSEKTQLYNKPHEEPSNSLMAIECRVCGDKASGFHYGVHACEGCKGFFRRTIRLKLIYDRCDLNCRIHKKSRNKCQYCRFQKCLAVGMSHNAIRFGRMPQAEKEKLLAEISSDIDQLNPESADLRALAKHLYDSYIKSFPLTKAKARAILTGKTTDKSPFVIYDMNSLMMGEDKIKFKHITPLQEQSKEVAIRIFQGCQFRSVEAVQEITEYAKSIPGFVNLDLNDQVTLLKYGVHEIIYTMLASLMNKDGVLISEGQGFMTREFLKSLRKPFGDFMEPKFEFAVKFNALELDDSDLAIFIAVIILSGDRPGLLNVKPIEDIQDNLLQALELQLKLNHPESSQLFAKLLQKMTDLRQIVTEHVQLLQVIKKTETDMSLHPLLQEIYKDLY

[5] = target: T1, Peroxisome proliferator-activated receptor gamma (Homo sapiens); experiment: Transactivation of human PPARgamma LBD transfected in mouse embryo fibroblasts at 100 uM after 18 hrs by Gal4-responsive luciferase reporter gene assay relative to vehicle-treated control
[6] = target: T2, Peroxisome proliferator-activated receptor delta (Homo sapiens) (UniProt Q03181); experiment: Transactivation of PPARdelta (unknown origin) relative to control
T2 sequence (whole entry): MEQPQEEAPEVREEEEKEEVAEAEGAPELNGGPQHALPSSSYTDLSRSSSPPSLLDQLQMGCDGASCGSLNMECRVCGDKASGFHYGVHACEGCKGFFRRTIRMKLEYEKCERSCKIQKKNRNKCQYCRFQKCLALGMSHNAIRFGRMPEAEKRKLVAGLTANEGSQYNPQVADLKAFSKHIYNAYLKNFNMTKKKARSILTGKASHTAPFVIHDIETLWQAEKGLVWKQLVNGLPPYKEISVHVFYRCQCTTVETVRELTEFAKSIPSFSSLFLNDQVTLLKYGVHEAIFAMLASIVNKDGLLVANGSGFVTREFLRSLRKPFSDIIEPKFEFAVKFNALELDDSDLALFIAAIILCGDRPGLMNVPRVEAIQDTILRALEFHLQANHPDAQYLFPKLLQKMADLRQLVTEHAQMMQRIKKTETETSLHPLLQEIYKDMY

[7] = target: T3, Retinoic acid receptor RXR-alpha (Homo sapiens) (UniProt P19793); experiment: Transactivation of RXRalpha (unknown origin) relative to control
T3 sequence (whole entry): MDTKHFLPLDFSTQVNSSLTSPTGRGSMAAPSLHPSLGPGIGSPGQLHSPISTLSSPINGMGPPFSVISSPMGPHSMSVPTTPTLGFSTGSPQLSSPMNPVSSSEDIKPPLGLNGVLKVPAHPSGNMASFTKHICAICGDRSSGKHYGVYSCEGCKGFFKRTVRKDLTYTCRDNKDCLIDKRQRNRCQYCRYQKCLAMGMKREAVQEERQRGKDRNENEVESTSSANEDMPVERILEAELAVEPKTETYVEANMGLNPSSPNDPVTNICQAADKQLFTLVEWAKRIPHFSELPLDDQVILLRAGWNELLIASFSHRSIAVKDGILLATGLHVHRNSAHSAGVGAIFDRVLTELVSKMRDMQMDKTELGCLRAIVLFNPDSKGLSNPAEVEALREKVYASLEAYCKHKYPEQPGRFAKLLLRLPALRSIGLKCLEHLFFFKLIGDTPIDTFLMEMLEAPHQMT

[8] = target: T4, Peroxisome proliferator-activated receptor alpha (Homo sapiens) (UniProt Q07869); experiment: Transactivation of PPARalpha (unknown origin) relative to control
T4 sequence (whole entry): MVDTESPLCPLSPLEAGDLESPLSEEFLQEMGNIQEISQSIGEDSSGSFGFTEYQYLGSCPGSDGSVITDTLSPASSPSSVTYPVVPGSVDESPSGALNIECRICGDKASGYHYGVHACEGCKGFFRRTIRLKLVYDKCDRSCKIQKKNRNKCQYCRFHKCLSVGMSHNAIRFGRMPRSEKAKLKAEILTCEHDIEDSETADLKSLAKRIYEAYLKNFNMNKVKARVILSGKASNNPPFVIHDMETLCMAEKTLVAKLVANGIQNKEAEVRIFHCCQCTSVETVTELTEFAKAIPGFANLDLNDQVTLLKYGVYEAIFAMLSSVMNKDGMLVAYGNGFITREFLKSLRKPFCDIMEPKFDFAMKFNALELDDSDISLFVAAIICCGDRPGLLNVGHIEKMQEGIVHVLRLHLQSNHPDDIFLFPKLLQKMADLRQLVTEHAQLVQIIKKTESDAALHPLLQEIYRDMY

[9] = target: T5, Peroxisome proliferator-activated receptor gamma (Homo sapiens, UniProt P37231); experiment: Binding affinity to GST-tagged human PPARgamma LBD by ligand displacement assay
T5 sequence (P37231 whole entry): T1 sequence (whole entry)

Activity [1] | inhibition [2] | Activity [4] | fold change (FC) [5] | fold change (FC) [6] | fold change (FC) [7] | fold change (FC) [8] | IC50 [9] | Compound | Activity [3]
inactive | inactive | 21.2% | 12.6 | – | – | – | – | CC(C)N(Cc1ccc(CCC(=O)O)cc1)C(=O)c1ccc(CNC(=O)c2ccccc2)cc1 | Non-toxic
inactive | inactive | 10.7% | 5.3 | – | – | – | – | CC(C)N(Cc1cccc(C(=O)N(Cc2ccc(CCC(=O)O)cc2)C(C)C)c1)C(=O)c1ccccc1 | Non-toxic
inactive | inactive | 27.2% | 13.4 | < 2 | 5 | < 2 | 38.7 µM | CC(C)N(Cc1ccc(CCC(=O)O)cc1)C(=O)c1cccc(CNC(=O)c2ccccc2)c1 | Non-toxic
inactive | inactive | 20.9% | 11.2 | < 2 | < 2 | > 2 | 56.2 µM | CCN(Cc1cccc(C(=O)N(CC)Cc2ccc(CCC(=O)O)cc2)c1)C(=O)c1ccccc1 | Non-toxic
inactive | inactive | 24.7% | 14.7 | – | – | – | – | CC(C)N(Cc1ccc(C(=O)N(Cc2ccc(CCC(=O)O)cc2)C(C)C)cc1)C(=O)c1ccccc1 | Non-toxic
inactive | inactive | 13.1% | 6 | – | – | – | – | CCN(Cc1ccc(C(=O)NCc2ccc(CCC(=O)O)cc2)cc1)C(=O)c1ccccc1 | Non-toxic
inactive | inactive | 18.4% | 7.3 | – | – | – | – | CC(C)N(Cc1cccc(C(=O)NCc2ccc(CCC(=O)O)cc2)c1)C(=O)c1ccccc1 | Non-toxic
inactive | inactive | 14.1% | 5.6 | < 2 | < 2 | < 2 | 62.7 µM | O=C(O)CCc1ccc(CNC(=O)c2cccc(CNC(=O)c3ccccc3)c2)cc1 | Non-toxic
inactive | inactive | 11.8% | 6.2 | – | – | – | – | CCN(Cc1ccc(CCC(=O)O)cc1)C(=O)c1ccc(CNC(=O)c2ccccc2)cc1 | Non-toxic
inactive | inactive | 12.5% | 5.7 | – | – | – | – | CC(C)N(Cc1ccc(C(=O)NCc2ccc(CCC(=O)O)cc2)cc1)C(=O)c1ccccc1 | Non-toxic
inactive | inactive | 23.5% | 9.3 | – | – | – | – | CCN(Cc1cccc(C(=O)NCc2ccc(CCC(=O)O)cc2)c1)C(=O)c1ccccc1 | Non-toxic
inactive | inactive | 5.4% | 2.5 | – | – | – | – | O=C(O)CCc1ccc(CNC(=O)c2ccc(CNC(=O)c3ccccc3)cc2)cc1 | Non-toxic
inactive | inactive | 11.6% | 6.9 | – | – | – | – | CCN(Cc1ccc(C(=O)N(Cc2ccc(CCC(=O)O)cc2)C(C)C)cc1)C(=O)c1ccccc1 | Non-toxic
inactive | inactive | 11.8% | 5.8 | – | – | – | – | CCN(Cc1cccc(C(=O)N(Cc2ccc(CCC(=O)O)cc2)C(C)C)c1)C(=O)c1ccccc1 | Non-toxic
inactive | inactive | 6.9% | 3.6 | – | – | – | – | CCN(Cc1ccc(CCC(=O)O)cc1)C(=O)c1ccc(CN(C(=O)c2ccccc2)C(C)C)cc1 | Non-toxic
inactive | inactive | 15.1% | 8.1 | – | – | – | – | CCN(Cc1ccc(CCC(=O)O)cc1)C(=O)c1cccc(CNC(=O)c2ccccc2)c1 | Non-toxic
inactive | inactive | 13.8% | 7.3 | – | – | – | – | CCN(Cc1ccc(C(=O)N(CC)Cc2ccc(CCC(=O)O)cc2)cc1)C(=O)c1ccccc1 | Non-toxic
inactive | inactive | 11.6% | 6.2 | – | – | – | – | CCN(Cc1ccc(CCC(=O)O)cc1)C(=O)c1cccc(CN(C(=O)c2ccccc2)C(C)C)c1 | Non-toxic
